# Data published in patent US7824668B2, “Compositions for attracting stink bugs” (Cotton Incorporated, priority 2006, dated 2010).
# Experiments:
# Assay type in all cases: in vivo
# [1] = tested on: Euschistus servus; test: Tedders trap field capture of Euschistus servus, pheromone with vs without geraniol synergist; conditions: 160 mg geraniol + 200 mg methyl (2E,4Z)-decadienoate vs pheromone alone
# Method: An experiment was carried out near Starkville, Oktibbeha County in Mississippi to study the response of Euschistus servus to a pheromone synergist. Geraniol was used as a synergist with methyl (2E,4Z)-decadienoate, a pheromone for Euschistus servus. Tedders traps were used in the experiment. Each treatment trap was baited with 160 mg geraniol and 200 mg methyl (2E,4Z)-decadienoate and each control trap was baited with 200 mg methyl (2E,4Z)-decadienoate. The control trap contained no geraniol or any other synergist. The trapped adult insects of Euschistus servos were collected on a daily basis and their total numbers were counted. Statistical analysis was done using the Least Squares means separation from the SAS GLM procedure.
# [2] = tested on: Euschistus tristigmus; test: Tedders trap field capture of Euschistus tristigmus, pheromone with vs without geraniol synergist; conditions: soybean field; 160 mg geraniol + 200 mg methyl (2E,4Z)-decadienoate vs 200 mg methyl (2E,4Z)-decadienoate alone; Pr>t 0.04
# Method: An experiment was carried out near Starkville, Oktibbeha County in Mississippi to study the response of Euschistus tristigmus in a crop field to a pheromone synergist. The crop field was a soybean field bordered on two sides by woods. Geraniol was used as a synergist with methyl (2E,4Z)-decadienoate, a pheromone for Euschistus tristigmus. Tedders traps were used in the experiment. Each trap was baited with 160 mg geraniol and 200 mg methyl (2E,4Z)-decadienoate and each control trap was baited with 200 mg methyl (2E,4Z)-decadienoate. The control trap contained no geraniol or other synergists. The trapped adult insects of Euschistus tristigmus were collected on a daily basis and the total number of trapped insects was counted. Statistical analysis was done using the Least Squares means separation from the SAS GLM procedure.
# [3] = tested on: Euschistus species; test: Tedders trap field capture of Euschistus species, pheromone with vs without geraniol synergist; conditions: soybean field, Monticello, Ark.; 160 mg geraniol + 200 mg methyl (2E,4Z)-decadienoate vs pheromone alone; Pr>t 0.09
# Method: An experiment was carried out in Monticello, Ark. to study the response of Euschistus species in a soybean field to a pheromone synergist. Geraniol was used as a synergist to methyl (2E,4Z)-decadienoate, which is a pheromone for both Euschistus species. […] traps were used in the experiment. Each treatment trap was baited with 160 mg geraniol and 200 mg methyl (2E,4Z)-decadienoate and each control trap was baited with 200 mg methyl (2E,4Z)-decadienoate. The control traps contained no geraniol or any other synergist. The trapped adult insects of Euschistus species were collected on a daily basis and their total numbers were counted. Statistical analysis was done using the Least Squares means separation from the SAS GLM procedure.
compound,measurement,setting,value
"CC(C)=CCC/C(C)=C/CO [geraniol, E-(3,7)-Dimethyl-2,6-octadien-1-ol]",increase in the number of captured bugs,"[1]; crepe myrtle field, Pr>t 0.51",~72%
same,increase in the number of captured bugs,"[1]; field of mixed crops of plum and okra, Pr>t 0.02",~92%
same,increase in the number of captured bugs,"[1]; new-peach field, Pr>t 0.05",~251%
same,increase in the number of captured bugs,"[1]; old-peach field, Pr>t 0.02",~122%
same,increase in the number of captured bugs,"[1]; soybean field, Pr>t 0.61",~14%
same,increase in the number of captured Euchistus tristigmus,[2],~75%
same,increase in the number of captured bugs,[3],~269%
